Measurements reported in PubChem BioAssay (NCI).
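Test compounds were applied to cells in 96-well plates for 48 hours at 5 doses. Definition used: TGI = concentration required for complete inhibition of growth.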

How the values were obtained:
Assay in all cases: NCI anticancer screen, dose series, 48 h
786-0 renal = test system: 786-0 renal
A498 renal = test system: A498 renal
A549 NSCLC = test system: A549 NSCLC
ACHN renal = test system: ACHN renal
BT-549 breast = test system: BT-549 breast
CCRF-CEM leukemia = test system: CCRF-CEM leukemia
COLO 205 colon = test system: COLO 205 colon
DU-145 prostate = test system: DU-145 prostate
EKVX NSCLC = test system: EKVX NSCLC
HCC-2998 colon = test system: HCC-2998 colon
HCT-116 colon = test system: HCT-116 colon
HCT-15 colon = test system: HCT-15 colon
HL-60(TB) leukemia = test system: HL-60(TB) leukemia
HOP-62 NSCLC = test system: HOP-62 NSCLC
HOP-92 NSCLC = test system: HOP-92 NSCLC
HS 578T breast = test system: HS 578T breast
HT29 colon = test system: HT29 colon
IGROV1 ovarian = test system: IGROV1 ovarian
K-562 leukemia = test system: K-562 leukemia
KM12 colon = test system: KM12 colon
LOX IMVI melanoma = test system: LOX IMVI melanoma
M14 melanoma = test system: M14 melanoma
MALME-3M melanoma = test system: MALME-3M melanoma
MCF7 breast = test system: MCF7 breast
MDA-MB-231 breast = test system: MDA-MB-231 breast
MDA-MB-435 = test system: MDA-MB-435
MOLT-4 leukemia = test system: MOLT-4 leukemia
NCI-H226 lung = test system: NCI-H226 lung
NCI-H23 lung = test system: NCI-H23 lung
NCI-H460 lung = test system: NCI-H460 lung
NCI-H522 lung = test system: NCI-H522 lung
NCI/ADR-RES ovarian = test system: NCI/ADR-RES ovarian
OVCAR-3 ovarian = test system: OVCAR-3 ovarian
OVCAR-4 ovarian = test system: OVCAR-4 ovarian
OVCAR-5 ovarian = test system: OVCAR-5 ovarian
OVCAR-8 ovarian = test system: OVCAR-8 ovarian
PC-3 prostate = test system: PC-3 prostate
RPMI-8226 leukemia = test system: RPMI-8226 leukemia
RXF 393 renal = test system: RXF 393 renal
SF-268 CNS = test system: SF-268 CNS
SF-295 CNS = test system: SF-295 CNS
SF-539 CNS = test system: SF-539 CNS
SK-MEL-2 melanoma = test system: SK-MEL-2 melanoma
SK-MEL-28 melanoma = test system: SK-MEL-28 melanoma
SK-MEL-5 melanoma = test system: SK-MEL-5 melanoma
SNB-19 CNS = test system: SNB-19 CNS
SNB-75 CNS = test system: SNB-75 CNS
SR leukemia = test system: SR leukemia
SW-620 colon = test system: SW-620 colon
T-47D breast = test system: T-47D breast
TK-10 renal = test system: TK-10 renal
U251 CNS = test system: U251 CNS
UACC-257 melanoma = test system: UACC-257 melanoma
UACC-62 melanoma = test system: UACC-62 melanoma
UO-31 renal = test system: UO-31 renal

Measured: TGI

CCOC(=O)c1nc2ccc(C(F)(F)F)cc2nc1Nc1ccc(OC)cc1
63.5 µM: HOP-62 NSCLC
77.6 µM: SF-295 CNS
49.2 µM: HOP-92 NSCLC
49.1 µM: OVCAR-4 ovarian
70.1 µM: RXF 393 renal
86.4 µM: BT-549 breast
50.6 µM: MDA-MB-231 breast
90.1 µM: SF-539 CNS
> 100 µM: all other assays above
